Data published in PubChem BioAssay (NCI).
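Values below derive from 48-hour exposures of cells grown in 96-well plates, with endpoints linearly interpolated between the two concentrations bracketing the appropriate inhibition level. GI50 is the concentration that inhibits growth by half. TGI: total growth inhibition.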

How the values were obtained:
Test in all cases: NCI anticancer screen, dose series, 48 h
COLO 205 colon = tested on: COLO 205 colon
SNB-75 CNS = tested on: SNB-75 CNS
RPMI-8226 leukemia = tested on: RPMI-8226 leukemia
NCI-H460 lung = tested on: NCI-H460 lung
EKVX NSCLC = tested on: EKVX NSCLC
RXF 393 renal = tested on: RXF 393 renal
CAKI-1 renal = tested on: CAKI-1 renal
SF-539 CNS = tested on: SF-539 CNS
SK-MEL-28 melanoma = tested on: SK-MEL-28 melanoma
U251 CNS = tested on: U251 CNS
UACC-257 melanoma = tested on: UACC-257 melanoma
SR leukemia = tested on: SR leukemia
OVCAR-4 ovarian = tested on: OVCAR-4 ovarian
MALME-3M melanoma = tested on: MALME-3M melanoma
SK-OV-3 ovarian = tested on: SK-OV-3 ovarian
K-562 leukemia = tested on: K-562 leukemia
A549 NSCLC = tested on: A549 NSCLC
NCI-H522 lung = tested on: NCI-H522 lung
OVCAR-8 ovarian = tested on: OVCAR-8 ovarian
HL-60(TB) leukemia = tested on: HL-60(TB) leukemia
M14 melanoma = tested on: M14 melanoma
ACHN renal = tested on: ACHN renal
NCI-H226 lung = tested on: NCI-H226 lung
786-0 renal = tested on: 786-0 renal
KM12 colon = tested on: KM12 colon
A498 renal = tested on: A498 renal
LOX IMVI melanoma = tested on: LOX IMVI melanoma
MDA-MB-231 breast = tested on: MDA-MB-231 breast
HCT-15 colon = tested on: HCT-15 colon
SW-620 colon = tested on: SW-620 colon
UO-31 renal = tested on: UO-31 renal
NCI/ADR-RES ovarian = tested on: NCI/ADR-RES ovarian
UACC-62 melanoma = tested on: UACC-62 melanoma
MCF7 breast = tested on: MCF7 breast
HOP-92 NSCLC = tested on: HOP-92 NSCLC
OVCAR-3 ovarian = tested on: OVCAR-3 ovarian
CCRF-CEM leukemia = tested on: CCRF-CEM leukemia
MDA-MB-435 = tested on: MDA-MB-435
SK-MEL-2 melanoma = tested on: SK-MEL-2 melanoma
SK-MEL-5 melanoma = tested on: SK-MEL-5 melanoma
PC-3 prostate = tested on: PC-3 prostate
HCC-2998 colon = tested on: HCC-2998 colon
HS 578T breast = tested on: HS 578T breast
MOLT-4 leukemia = tested on: MOLT-4 leukemia
HOP-62 NSCLC = tested on: HOP-62 NSCLC
HCT-116 colon = tested on: HCT-116 colon
T-47D breast = tested on: T-47D breast
SNB-19 CNS = tested on: SNB-19 CNS
OVCAR-5 ovarian = tested on: OVCAR-5 ovarian
IGROV1 ovarian = tested on: IGROV1 ovarian
SN12C renal = tested on: SN12C renal
DU-145 prostate = tested on: DU-145 prostate
TK-10 renal = tested on: TK-10 renal
NCI-H23 lung = tested on: NCI-H23 lung
HT29 colon = tested on: HT29 colon
SF-295 CNS = tested on: SF-295 CNS
BT-549 breast = tested on: BT-549 breast
SF-268 CNS = tested on: SF-268 CNS

C[C@H]1[C@H](C)CC[C@]2(C(=O)O)CC[C@]3(C)C(=CC[C@@H]4[C@@]5(C)CC[C@H](OC(=O)/C=C/c6ccc(O)cc6)C(C)(C)[C@@H]5CC[C@]43C)[C@H]12
GI50 (COLO 205 colon): 4.12 µM
TGI (COLO 205 colon): > 50.3 µM
GI50 (SNB-75 CNS): 4.82 µM
TGI (SNB-75 CNS): 28.9 µM
GI50 (RPMI-8226 leukemia): 5.49 µM
TGI (RPMI-8226 leukemia): 48.5 µM
GI50 (NCI-H460 lung): 7.08 µM
TGI (NCI-H460 lung): > 65.9 µM
GI50 (EKVX NSCLC): 3.88 µM
TGI (EKVX NSCLC): 18.6 µM
GI50 (RXF 393 renal): 1830 nM
TGI (RXF 393 renal): 5.42 µM
GI50 (CAKI-1 renal): 3.13 µM
TGI (CAKI-1 renal): 16.3 µM
GI50 (SF-539 CNS): 3.8 µM
TGI (SF-539 CNS): 10.2 µM
GI50 (SK-MEL-28 melanoma): 19.1 µM
TGI (SK-MEL-28 melanoma): > 74.5 µM
GI50 (U251 CNS): 6.54 µM
TGI (U251 CNS): 17.2 µM
GI50 (UACC-257 melanoma): 12.1 µM
TGI (UACC-257 melanoma): 51.5 µM
GI50 (SR leukemia): 3.77 µM
TGI (SR leukemia): 24.2 µM
GI50 (OVCAR-4 ovarian): 9.42 µM
TGI (OVCAR-4 ovarian): 38.1 µM
GI50 (MALME-3M melanoma): 1900 nM
TGI (MALME-3M melanoma): 20 µM
GI50 (SK-OV-3 ovarian): 5.25 µM
TGI (SK-OV-3 ovarian): 20.3 µM
GI50 (K-562 leukemia): 7.14 µM
TGI (K-562 leukemia): 47.2 µM
GI50 (A549 NSCLC): 2370 nM
TGI (A549 NSCLC): 12.7 µM
GI50 (NCI-H522 lung): 9.45 µM
TGI (NCI-H522 lung): 23 µM
GI50 (OVCAR-8 ovarian): 2800 nM
TGI (OVCAR-8 ovarian): 18.3 µM
GI50 (HL-60(TB) leukemia): 6.53 µM
TGI (HL-60(TB) leukemia): 34.3 µM
GI50 (M14 melanoma): 4.13 µM
TGI (M14 melanoma): 12.5 µM
GI50 (ACHN renal): 5.05 µM
TGI (ACHN renal): 9.12 µM
GI50 (NCI-H226 lung): 15.1 µM
TGI (NCI-H226 lung): 29.2 µM
GI50 (786-0 renal): 3.57 µM
TGI (786-0 renal): 9.53 µM
GI50 (KM12 colon): 1090 nM
TGI (KM12 colon): 9.97 µM
GI50 (A498 renal): 21.1 µM
TGI (A498 renal): 37.9 µM
GI50 (LOX IMVI melanoma): 4.73 µM
TGI (LOX IMVI melanoma): 16.6 µM
GI50 (MDA-MB-231 breast): 5.1 µM
TGI (MDA-MB-231 breast): 18.3 µM
GI50 (HCT-15 colon): 10.9 µM
TGI (HCT-15 colon): 33 µM
GI50 (SW-620 colon): 9.2 µM
TGI (SW-620 colon): 32.4 µM
GI50 (UO-31 renal): 3.59 µM
TGI (UO-31 renal): 29.8 µM
GI50 (NCI/ADR-RES ovarian): 10.9 µM
TGI (NCI/ADR-RES ovarian): 26.1 µM
GI50 (UACC-62 melanoma): 15.1 µM
TGI (UACC-62 melanoma): 31.6 µM
GI50 (MCF7 breast): 3.02 µM
TGI (MCF7 breast): 34.4 µM
GI50 (HOP-92 NSCLC): 16.6 µM
TGI (HOP-92 NSCLC): 37.2 µM
GI50 (OVCAR-3 ovarian): 12.5 µM
TGI (OVCAR-3 ovarian): 39.2 µM
GI50 (CCRF-CEM leukemia): 5 µM
TGI (CCRF-CEM leukemia): > 40.4 µM
GI50 (MDA-MB-435): 6.38 µM
TGI (MDA-MB-435): 19.7 µM
GI50 (SK-MEL-2 melanoma): 13.5 µM
TGI (SK-MEL-2 melanoma): 50.1 µM
GI50 (SK-MEL-5 melanoma): 4.91 µM
TGI (SK-MEL-5 melanoma): 14.9 µM
GI50 (PC-3 prostate): 6.94 µM
TGI (PC-3 prostate): 24.6 µM
GI50 (HCC-2998 colon): 7.37 µM
TGI (HCC-2998 colon): 21.9 µM
GI50 (HS 578T breast): 2810 nM
TGI (HS 578T breast): 8.8 µM
GI50 (MOLT-4 leukemia): 4.42 µM
TGI (MOLT-4 leukemia): 49.7 µM
GI50 (HOP-62 NSCLC): 3.63 µM
TGI (HOP-62 NSCLC): 7.03 µM
GI50 (HCT-116 colon): 3.09 µM
TGI (HCT-116 colon): 7.93 µM
GI50 (T-47D breast): 13.3 µM
TGI (T-47D breast): > 60.1 µM
GI50 (SNB-19 CNS): 2440 nM
TGI (SNB-19 CNS): 22.9 µM
GI50 (OVCAR-5 ovarian): 5.27 µM
TGI (OVCAR-5 ovarian): 12.7 µM
GI50 (IGROV1 ovarian): 8.39 µM
TGI (IGROV1 ovarian): 45.8 µM
GI50 (SN12C renal): 2150 nM
TGI (SN12C renal): 5.65 µM
GI50 (DU-145 prostate): 2320 nM
TGI (DU-145 prostate): 13 µM
GI50 (TK-10 renal): 3.01 µM
TGI (TK-10 renal): 17.5 µM
GI50 (NCI-H23 lung): 3.11 µM
TGI (NCI-H23 lung): 8.36 µM
GI50 (HT29 colon): 18.8 µM
TGI (HT29 colon): > 100 µM
GI50 (SF-295 CNS): 2270 nM
TGI (SF-295 CNS): 7.04 µM
GI50 (BT-549 breast): 5.11 µM
TGI (BT-549 breast): 13.4 µM
GI50 (SF-268 CNS): 3.23 µM
TGI (SF-268 CNS): 12 µM
